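Where inhibition never reached the appropriate level, the endpoint shown equals the highest concentration tested. Otherwise, values were interpolated linearly from a five-concentration, 48-hour dose response in 96-well plates. Abbreviation: GI50, concentration required for 50% inhibition of growth.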 Calls of active or inactive are those of the source. Rule as the data show it: active = GI50 up to about 1.1 µM and inactive = higher.
Legend:
Assay in all cases: NCI tumour cell line growth inhibition, 48 h
A498 = system: A498
KM12 = system: KM12
NCI-H460 = system: NCI-H460
786-0 = system: 786-0
HCC 2998 = system: HCC 2998
UO-31 = system: UO-31
NCI-H23 = system: NCI-H23
OVCAR-5 = system: OVCAR-5
IGROV-1 = system: IGROV-1
MDA-MB-435 = system: MDA-MB-435
OVCAR-3 = system: OVCAR-3
SK-MEL-2 = system: SK-MEL-2
A549 = system: A549
MOLT-4 = system: MOLT-4
HOP-92 = system: HOP-92
CAKI-1 = system: CAKI-1
CCRF-CEM = system: CCRF-CEM
HT-29 = system: HT-29
M14 = system: M14
SW-620 = system: SW-620
SK-OV-3 = system: SK-OV-3
OVCAR-8 = system: OVCAR-8
MCF7 = system: MCF7
ACHN = system: ACHN
SF-295 = system: SF-295
TK-10 = system: TK-10
SF-268 = system: SF-268
Hs-578T = system: Hs-578T
NCI-H226 = system: NCI-H226
NCI-H522 = system: NCI-H522
RPMI-8226 = system: RPMI-8226
U-251 = system: U-251
SN12C = system: SN12C
T47D = system: T47D
OVCAR-4 = system: OVCAR-4
EKVX = system: EKVX
SNB-75 = system: SNB-75
SK-MEL-28 = system: SK-MEL-28
RXF 393 = system: RXF 393
MDA-MB-231 = system: MDA-MB-231
COLO 205 = system: COLO 205
UACC-257 = system: UACC-257
SNB-19 = system: SNB-19
BT-549 = system: BT-549
NCI/ADR-RES = system: NCI/ADR-RES
DU-145 = system: DU-145
K562 = system: K562
SK-MEL-5 = system: SK-MEL-5
HCT-15 = system: HCT-15
HCT-116 = system: HCT-116
HOP-62 = system: HOP-62
PC-3 = system: PC-3
SR = system: SR
SF-539 = system: SF-539
Malme-3M = system: Malme-3M
LOX IMVI = system: LOX IMVI
MDA-N = system: MDA-N
HL-60 = system: HL-60
UACC-62 = system: UACC-62

Structure (SMILES): Cc1cnc2c(c1C)C(=O)c1ccccc1C2=O
- GI50 (A498): > 100 µM (inactive)
- GI50 (KM12): 44.6 µM (inactive)
- GI50 (NCI-H460): 18.8 µM (inactive)
- GI50 (786-0): 65.2 µM (inactive)
- GI50 (HCC 2998): 29.7 µM (inactive)
- GI50 (UO-31): 21.2 µM (inactive)
- GI50 (NCI-H23): 44.7 µM (inactive)
- GI50 (OVCAR-5): > 100 µM (inactive)
- GI50 (IGROV-1): 32.6 µM (inactive)
- GI50 (MDA-MB-435): 19.3 µM (inactive)
- GI50 (OVCAR-3): 3.48 µM (inactive)
- GI50 (SK-MEL-2): 63.5 µM (inactive)
- GI50 (A549): 40.1 µM (inactive)
- GI50 (MOLT-4): 28.3 µM (inactive)
- GI50 (HOP-92): > 100 µM (inactive)
- GI50 (CAKI-1): 30 µM (inactive)
- GI50 (CCRF-CEM): 69.8 µM (inactive)
- GI50 (HT-29): 37.2 µM (inactive)
- GI50 (M14): 69 µM (inactive)
- GI50 (SW-620): 27.5 µM (inactive)
- GI50 (SK-OV-3): 50.5 µM (inactive)
- GI50 (OVCAR-8): 43.2 µM (inactive)
- GI50 (MCF7): 39.1 µM (inactive)
- GI50 (ACHN): 36.4 µM (inactive)
- GI50 (SF-295): 50.2 µM (inactive)
- GI50 (TK-10): > 100 µM (inactive)
- GI50 (SF-268): 20.1 µM (inactive)
- GI50 (Hs-578T): 32.9 µM (inactive)
- GI50 (NCI-H226): 36.8 µM (inactive)
- GI50 (NCI-H522): > 100 µM (inactive)
- GI50 (RPMI-8226): 24.6 µM (inactive)
- GI50 (U-251): 61.5 µM (inactive)
- GI50 (SN12C): 28.6 µM (inactive)
- GI50 (T47D): 70.5 µM (inactive)
- GI50 (OVCAR-4): 18.8 µM (inactive)
- GI50 (EKVX): 37.8 µM (inactive)
- GI50 (SNB-75): 32.9 µM (inactive)
- GI50 (SK-MEL-28): > 100 µM (inactive)
- GI50 (RXF 393): 58.1 µM (inactive)
- GI50 (MDA-MB-231): 26.5 µM (inactive)
- GI50 (COLO 205): 28.8 µM (inactive)
- GI50 (UACC-257): 49.4 µM (inactive)
- GI50 (SNB-19): 41.9 µM (inactive)
- GI50 (BT-549): > 100 µM (inactive)
- GI50 (NCI/ADR-RES): 46.3 µM (inactive)
- GI50 (DU-145): > 100 µM (inactive)
- GI50 (K562): 39.4 µM (inactive)
- GI50 (SK-MEL-5): 11.8 µM (inactive)
- GI50 (HCT-15): 21.6 µM
- GI50 (HCT-116): 36.1 µM (inactive)
- GI50 (HOP-62): 2.47 µM (inactive)
- GI50 (PC-3): 26 µM (inactive)
- GI50 (SR): 38 µM (inactive)
- GI50 (SF-539): 29.2 µM (inactive)

Structure (SMILES): COCOc1ccc(C2(O)Oc3cc(OCOC)ccc3C2C)c(O)c1 (configuration not stated)
- GI50 (A498): 15.5 µM (inactive)
- GI50 (KM12): 16.7 µM (inactive)
- GI50 (NCI-H460): 13.4 µM (inactive)
- GI50 (786-0): 17.8 µM (inactive)
- GI50 (HCC 2998): 13.5 µM (inactive)
- GI50 (UO-31): 11.6 µM (inactive)
- GI50 (NCI-H23): 11.2 µM (inactive)
- GI50 (OVCAR-5): 17.1 µM (inactive)
- GI50 (IGROV-1): 17.6 µM (inactive)
- GI50 (Malme-3M): 15.3 µM (inactive)
- GI50 (MDA-MB-435): 14.9 µM (inactive)
- GI50 (OVCAR-3): 13.4 µM (inactive)
- GI50 (SK-MEL-2): 18.4 µM (inactive)
- GI50 (A549): 15.9 µM (inactive)
- GI50 (MOLT-4): 10.3 µM (inactive)
- GI50 (HOP-92): 16.2 µM (inactive)
- GI50 (CAKI-1): 16.3 µM (inactive)
- GI50 (CCRF-CEM): 14.9 µM (inactive)
- GI50 (HT-29): 18.1 µM (inactive)
- GI50 (LOX IMVI): 16.9 µM (inactive)
- GI50 (M14): 16.6 µM (inactive)
- GI50 (SW-620): 18.4 µM (inactive)
- GI50 (SK-OV-3): 17.5 µM (inactive)
- GI50 (OVCAR-8): 16.8 µM (inactive)
- GI50 (MCF7): 14.3 µM (inactive)
- GI50 (ACHN): 12.9 µM (inactive)
- GI50 (SF-295): 14.5 µM (inactive)
- GI50 (MDA-N): 15.3 µM (inactive)
- GI50 (TK-10): 17.9 µM (inactive)
- GI50 (HL-60): 10.5 µM (inactive)
- GI50 (SF-268): 15.9 µM (inactive)
- GI50 (NCI-H226): 14.8 µM (inactive)
- GI50 (NCI-H522): 18.2 µM (inactive)
- GI50 (RPMI-8226): 11.7 µM (inactive)
- GI50 (U-251): 15 µM (inactive)
- GI50 (SN12C): 16.4 µM (inactive)
- GI50 (T47D): 12.3 µM (inactive)
- GI50 (OVCAR-4): 17.3 µM (inactive)
- GI50 (EKVX): 14.6 µM (inactive)
- GI50 (SNB-75): 15.3 µM (inactive)
- GI50 (SK-MEL-28): 17.2 µM (inactive)
- GI50 (RXF 393): 16.4 µM (inactive)
- GI50 (MDA-MB-231): 12.3 µM (inactive)
- GI50 (COLO 205): 18.2 µM (inactive)
- GI50 (UACC-257): 12.1 µM (inactive)
- GI50 (SNB-19): 16 µM (inactive)
- GI50 (BT-549): 14.2 µM (inactive)
- GI50 (NCI/ADR-RES): 13.5 µM (inactive)
- GI50 (DU-145): 13.1 µM (inactive)
- GI50 (K562): 10.7 µM (inactive)
- GI50 (SK-MEL-5): 11 µM (inactive)
- GI50 (HCT-15): 10.5 µM
- GI50 (HCT-116): 14.3 µM (inactive)
- GI50 (HOP-62): 18 µM (inactive)
- GI50 (UACC-62): 12.9 µM (inactive)
- GI50 (PC-3): 13.2 µM (inactive)
- GI50 (SR): 6.95 µM (inactive)
- GI50 (SF-539): 15.7 µM (inactive)
